One block for each molecule: values may come before it.
How the values were obtained:
Type in all cases: biochemical
MMP-13 [1] = biological target: T1, MMP-13 (Homo sapiens, UniProt P45452)
MMP-2 = biological target: T2, MMP-2 (Homo sapiens, UniProt P08253); assay: MMP-2 enzyme assay with fTHP substrates; settings: 200 nM
T2 sequence (P08253 110-660): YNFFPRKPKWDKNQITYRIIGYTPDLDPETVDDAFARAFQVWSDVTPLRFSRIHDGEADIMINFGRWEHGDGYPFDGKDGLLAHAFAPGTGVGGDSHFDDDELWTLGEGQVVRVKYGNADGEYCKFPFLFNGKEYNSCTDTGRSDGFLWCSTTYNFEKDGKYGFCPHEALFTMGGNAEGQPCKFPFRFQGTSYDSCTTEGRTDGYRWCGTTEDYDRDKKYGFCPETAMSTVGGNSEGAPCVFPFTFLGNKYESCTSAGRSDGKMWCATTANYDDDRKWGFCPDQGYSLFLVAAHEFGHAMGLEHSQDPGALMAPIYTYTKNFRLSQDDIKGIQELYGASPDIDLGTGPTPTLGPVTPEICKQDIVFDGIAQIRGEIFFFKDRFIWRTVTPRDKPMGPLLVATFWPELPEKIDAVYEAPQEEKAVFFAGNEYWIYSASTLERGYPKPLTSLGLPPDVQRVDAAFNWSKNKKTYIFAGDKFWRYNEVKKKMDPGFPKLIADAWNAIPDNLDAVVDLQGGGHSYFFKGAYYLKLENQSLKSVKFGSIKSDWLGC

MMP-8 = MMP-8 (Homo sapiens, UniProt P22894); assay: MMP-8 enzyme assay with fTHP substrates; settings: 200 nM
Sequence of MMP-8 (P22894 101-467, species assumed): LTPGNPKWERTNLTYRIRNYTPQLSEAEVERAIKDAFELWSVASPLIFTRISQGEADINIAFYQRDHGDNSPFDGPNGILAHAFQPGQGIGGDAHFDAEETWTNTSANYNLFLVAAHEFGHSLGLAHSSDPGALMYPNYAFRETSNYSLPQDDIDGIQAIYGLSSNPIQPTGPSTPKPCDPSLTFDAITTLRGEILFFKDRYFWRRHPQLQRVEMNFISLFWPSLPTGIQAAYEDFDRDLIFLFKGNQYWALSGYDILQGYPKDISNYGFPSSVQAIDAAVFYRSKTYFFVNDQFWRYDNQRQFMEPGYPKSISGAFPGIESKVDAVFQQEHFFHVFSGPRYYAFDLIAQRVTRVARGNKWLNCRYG

MMP-13 [2] = biological target: T1, MMP-13; assay: In vitro type II collagen cleavage assay; settings: 20 μM; intact type II collagen remaining after 24 h at 37 °C

loss of inhibition activity vs MMP-13 compared to the (S)-enantiomer (MMP-13 [1]; D-valine analogue compared to L-valine analogue): ca. 40 fold
SMILES: CNC(=O)[C@H](NC(=O)c1ccc(-c2ccc(CSc3nc4c(c(=O)[nH]3)CCC4)cc2)o1)C(C)C [(R)-17a]

improvement of MMP-13 inhibition potency compared to 5 (MMP-13 [1]; compared to starting inhibitor 5): ~300 fold | inhibition of MMP-2 in single-dose assay (MMP-2): moderately active | inhibition of MMP-8 in single-dose assay (MMP-8): moderately active
SMILES: CNC(=O)[C@@H](NC(=O)c1ccc(-c2ccc(CSc3nc4c(c(=O)[nH]3)CCC4)cc2)o1)C(C)C [(S)-17a]

inhibition of collagenolysis (type II collagen cleavage by MMP-13) (MMP-13 [2]): nearly inactive
SMILES: Cc1ccc(CSc2nc(O)c3c(n2)CCC3)cc1 [Compound 5]

From publication PMC6420151 (Journal of medicinal chemistry, 2017)
